Source: publication PMC12612047 (Nature Communications, 2025)

Tested on: CLMB-FLAG S-acylation in HEK293 Flp-In TReX cells
Experiment: Metabolic pulse-chase labeling assay of dynamic CLMB S-acylation
Assay type: cell-based
Details: 30-min chase

## CCCCCCCCCC[C@@H]1C(=O)O[C@H]1CCc1ccc(OC)c(OC)c1 [PalmB, palmostatin B]
  increase of palmitate incorporation into CLMB (17-ODYA to L-AHA ratio), PalmB vs DMSO: ~ 3 fold
